The text below walks through data of publication PMC4639711, “The Helicase Activity of Hyperthermophilic Archaeal MCM is Enhanced at High Temperatures by Lysine Methylation” (Frontiers in Microbiology, 2015).

Common to all, as to format: biochemical
Experiment [1] has as its target T1, sisMCM (MCM) (Saccharolobus islandicus, UniProt F0NF15, K280M/K281M).
T1 construct: recombinant, pGEX-6P-1 in E. coli BL21(DE3) CodonPlus RIL; GST tag removed with PreScission protease; apparent mass 75 kDa; hexamer
Briefly: ATPase assay, [γ-32P]ATP, PEI cellulose TLC. The settings on record: 1 mM ATP, 100 nM protein, 10 mM magnesium acetate, pH 8.0, 65°C, 30 min; labelled compound; methylation-mimic mutant.

In experiment [2] the target is T2, aKMT4 (Saccharolobus islandicus, UniProt F0NBH8, G38R).
T2 construct: gene SiRe_1449; recombinant, overexpressed in E. coli BL21(DE3) CodonPlus RIL; purified as in Niu et al. 2013; apparent mass 18 kDa
Briefly: 3H-methyl incorporation into sisMCM, SDS-PAGE and autoradiography. The settings on record: methyl acceptor sisMCM (2 μM), 50°C, labelled compound, methyltransferase-deficient mutant, no activity seen.

In experiment [3] the target is T3, aKMT4 (Saccharolobus islandicus, UniProt F0NBH8).
T3 construct: gene SiRe_1449
The description is as above. The settings on record: methyl acceptor sisMCM (2 μM), also automethylation, 50°C, labelled compound.

T2 sequence (F0NBH8 whole entry G38R): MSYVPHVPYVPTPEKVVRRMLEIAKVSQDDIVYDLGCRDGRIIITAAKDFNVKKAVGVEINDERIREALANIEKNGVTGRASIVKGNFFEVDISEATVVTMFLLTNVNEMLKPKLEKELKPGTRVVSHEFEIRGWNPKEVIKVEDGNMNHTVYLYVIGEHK
T1 sequence (F0NF15 entry or part of it K280M/K281M): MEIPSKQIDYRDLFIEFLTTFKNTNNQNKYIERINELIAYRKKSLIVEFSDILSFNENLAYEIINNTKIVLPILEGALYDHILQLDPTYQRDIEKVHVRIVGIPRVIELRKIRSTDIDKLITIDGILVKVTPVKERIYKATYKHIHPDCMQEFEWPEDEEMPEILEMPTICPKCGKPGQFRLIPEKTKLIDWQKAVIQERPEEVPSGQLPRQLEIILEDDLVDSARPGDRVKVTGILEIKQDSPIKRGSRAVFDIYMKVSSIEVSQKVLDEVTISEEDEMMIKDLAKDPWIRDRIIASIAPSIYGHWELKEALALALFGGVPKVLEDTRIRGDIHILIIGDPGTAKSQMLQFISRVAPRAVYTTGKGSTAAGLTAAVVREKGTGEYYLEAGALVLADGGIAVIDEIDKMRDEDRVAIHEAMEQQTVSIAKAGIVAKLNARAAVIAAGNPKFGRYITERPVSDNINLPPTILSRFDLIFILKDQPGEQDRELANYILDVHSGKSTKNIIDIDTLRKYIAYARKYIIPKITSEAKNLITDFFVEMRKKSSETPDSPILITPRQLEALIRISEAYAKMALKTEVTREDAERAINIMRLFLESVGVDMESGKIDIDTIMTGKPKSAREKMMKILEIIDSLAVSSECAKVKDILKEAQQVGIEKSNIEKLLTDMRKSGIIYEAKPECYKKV
T3 sequence (F0NBH8 whole entry): as the sequence (F0NBH8 whole entry G38R) above, with R38G counted along it

For the compound `Nc1ncnc2c1ncn2[C@@H]1O[C@H](COP(=O)(O)OP(=O)(O)OP(=O)(O)O)[C@@H](O)[C@H]1O` [ATP], in experiment [1], the “ATPase assay, [γ-32P]ATP, PEI cellulose TLC” value was “As for ATPase, K280M/K281M showed moderately decreased activity as wild type”.

As to `C[S+](CC[C@H](N)C(=O)O)C[C@H]1O[C@@H](n2cnc3c(N)ncnc32)[C@H](O)[C@@H]1O` (stereo partly drawn) [AdoMet], the results for the “3H-methyl incorporation into sisMCM, SDS-PAGE and autoradiography” value in experiment [2] and in experiment [3] were “no tritium incorporation was observed in the presence of a methyltransferase-deficient mutant aKMT4-G38R” and “We noticed potent ^3H-methyl incorporation into sisMCM protein as well as aKMT4 itself”, respectively.
